Experimental data as given in patent US9890327B2, “Phosphorescent transition metal complex, its preparation and use” (City University of Hong Kong, priority 2015, dated 2018).

Columns and labels:
[1] = Photophysical properties (emission, lifetime, luminescence quantum yield); format: physicochemical; settings: for Φem / λem / τo: 298 K
Description: ^1H NMR spectra were recorded on a Bruker 400 MHz AVANCE III spectrometer at 298 K using deuterated solvents. Chemical shifts (8, ppm) were reported relative to tetramethylsilane (TMS). Positive-ion electrospray ionization (ESI) mass spectra were recorded on a Perkin Elmer Sciex API 365 mass spectrometer at 298 K. IR spectra of the samples in KBr pellets were recorded in the range of 4000-400 cm^−1 using a Perkin Elmer FTIR-1600 spectrophotometer. Electronic absorption and steady-state emission spectra were recorded on a Hewlett-Packard 8453 diode array spectrophotometer and a SPEX Fluorolog 3-TCSPC spectrofluorometer, respectively. Emission lifetimes were measured in the Fast MCS or TCSPC mode with a NanoLED N-375 as the excitation source. Unless specified otherwise, all solutions for photophysical studies were degassed with no fewer than four successive freeze-pump-thaw cycles and stored in a 10 cm^3 round bottomed flask equipped with a side-arm 1-cm fluorescence cuvette and sealed from the atmosphere by a Rotaflo HP6/6 quick-release Teflon stopper. Luminescence quantum yields were measured by the optically dilute method (Demas, J N., Crosby, G A J., Phys. Chem., 1971, 75:991-1024) using a degassed CH3CN solution of [Re(phen)(CO)3(pyridine)](CF3SO3) (phen=1,10-phenanthroline) (φem=0.18, λex=355 nm) as the standard solution.
The photophysical data are summarized in Table 2, and the emission spectra of metal complex of Formula (IV) in CH3CN and aqueous buffer solutions at 298 K are shown in FIG. 2.

[2] = Reaction kinetics with H2O2 under pseudo first-order conditions, UV-Visible spectroscopy; format: physicochemical; settings: 298 K
Description: Kinetics experiments for the reactions of metal complex of Formula (IV) with H2O2 were performed under pseudo first-order conditions. Metal complex of Formula (IV) (10 μM) was reacted with H2O2 in a 1:100, 1:200, 1:400, or 1:800 molar ratio in potassium phosphate buffer (50 mM, pH 7.4)/DMSO (99:1, v/v) at 298 K. The reactions were monitored by UV-Visible spectroscopy at ca. 343 nm. The kobs values were determined by fitting the experimental data to the first-order rate equation, [A]=[A]oe^−kt. The k2 value was determined by plotting kobs versus [H2O2] and the rate constant corresponds to the determined slope.
The change in absorption spectrum of metal complex of Formula (IV) (10 μM) in aerated potassium phosphate buffer (50 mM, pH 7.4)/DMSO (99:1, v/v) in the presence of H2O2(1 mM) at 298 K is shown in FIG. 3. […] The pseudo first-order rate constant (kobs) of reaction of metal complex of Formula (IV) (10 μM) was determined to be (0.6375±0.0092)×10^−3 s^−1. The plot of kobs of reactions of metal complex of Formula (IV) with H2O2 against various concentrations of H2O2 is shown in FIG. 4.

[3] = H2O2-sensing emission titration; format: physicochemical; settings: complex 10 μM, buffer pH 7.4/DMSO (99:1)
Description: (§1) In H2O2-sensing studies, various amounts of H2O2 (25 mM; 0-20 μL) were added to a series of solutions containing metal complex of Formula (IV) (10 μM) in potassium phosphate buffer (50 mM, pH 7.4)/DMSO (99:1, v/v). The reaction mixtures were incubated in the dark at room temperature for 1.5 h, and their emission spectra were then measured. The limit of detection was determined according to the equation, […]. In the selectivity studies, different reactive oxygen species (100 μM) were added into a series of solutions containing metal complex of Formula (IV) (10 μM) in potassium phosphate buffer (50 mM, pH 7.4)/DMSO (99:1, v/v). The reaction mixtures were incubated in the dark at room temperature for 1.5 h, and their emission spectra were then measured. H2O2 was diluted from a stabilized 30% aqueous solution. TBHP was diluted from a 70% aqueous solution. NOC-7, KO2, and NaOCl were used as the sources of NO, O2^−, and ClO^−, respectively. Singlet oxygen (^1O2) was generated by the reaction of NaOCl and H2O2(Held, A M. Et al., Am. Chem. Soc., 1978, 100:5732-5740; Aubry, J M., J. Am. Chem. Soc., 1985, 107:5844-5849). Hydroxyl radicals (OH.) were generated by the reaction of ammonium iron(II) sulfate hexahydrate and H2O2.
The reactivity of metal complex of Formula (IV) with H2O2 was examined by emission titrations and the emission titration traces and corresponding titration curve are shown in FIGS. 5 and 6, respectively. […] The detection limit was calculated to be 1.84 μM.

[4] = Selectivity study: emission response toward reactive oxygen species; format: physicochemical; settings: complex 10 μM, buffer pH 7.4/DMSO (99:1), 1.5 h
Description: as §1, with “H2O2. […]” for “H2O2.”

HeLa cells [5] = assay: Cytotoxicity by MTT assay; format: cell-based
Description: To confirm the suitability of the possibility of metal complex of Formula (IV) as phosphorescent sensor for intracellular H2O2, the cytotoxicity of metal complex of Formula (IV) was examined by the MTT assay.
HeLa cells were cultured in growth medium in a humidified chamber at 37° C. under a 5% CO2 atmosphere. The cells were subcultured every 2-3 days. HeLa cells were seeded in a 96-well flat-bottomed microplate (10,000 cells/well) in a growth medium (100 μL) and incubated at 37° C. under a 5% CO2 atmosphere for 24 h. […] The wells containing untreated cells were used as blank controls. […] Then MTT in PBS (5 mg/mL; 10 μL) was added to each well. The microplate was then incubated for another 4 h. The medium was removed and DMSO (200 μL) was added to each well. The microplate was further incubated for 10 min. The absorbance of the solutions at 570 nm was measured with a SPECTRAmax 340 microplate reader (Molecular Devices Corp., Sunnyvale, Calif.). Percentage cell survival was calculated relative to the absorbance of the control for each treatment. The viability of untreated cells was assumed to be 100%.

HeLa cells [6] = assay: Live-cell imaging by laser-scanning confocal microscopy (uptake, mitochondrial co-staining, intracellular H2O2); format: cell-based
Description: For co-staining experiments, HeLa cells in growth medium were seeded on a sterilized coverslip in a 35-mm tissue culture dish and grown at 37° C. under a 5% CO2 atmosphere for 48 h. The medium was removed and the cells were incubated with metal complex of Formula (IV) (10 μM) in growth medium/DMSO (99:1, v/v) for 40 min and then with MitoTracker Deep Red FM (100 nM) in a FBS-free medium for another 20 min. Prior to imaging, the cells were washed with PBS (1 mL×3), mounted onto a sterilized glass slide, and then imaged using a Leica TCS SPE confocal microscope with an oil immersion 63× objective. The excitation wavelength for metal complex of Formula (IV) was 405 nm and that of MitoTracker Deep Red FM was 633 nm. The Pearson's coefficient was determined by the program Image J (version 1.45k). For imaging of intracellular H2O2, HeLa cells in growth medium were seeded on a sterilized coverslip in a 35-mm tissue culture dish and grown at 37° C. under a 5% CO2 atmosphere for 48 h. The medium was removed and the cells were incubated with metal complex of Formula (IV) (10 μM) in growth medium/DMSO (99:1, v/v) for 1 h. The stained cells were washed with PBS (1 mL×3) and further treated with H2O2 (1 mM) in growth medium for another 2 h. Prior to imaging, the cells were washed with PBS (1 mL×3), mounted onto a sterilized glass slide, and then imaged using a Leica TCS SPE confocal microscope with an oil immersion 63× objective.
The use of metal complex of Formula (IV) for intracellular H2O2-sensing was evaluated by laser-scanning confocal microscopy. […] (FIG. 10D to 10F). This implies that the internalization of metal complex of Formula (IV) involved an energy-requiring pathway such as endocytosis.
With reference to FIG. 11A to 11C, the metal complex of Formula (IV) was localized in the mitochondria (Pearson's coefficient: 0.99).

[7] = degassed CH3CN solution, λex=355 nm; cited from earlier work
[8] = Potassium phosphate buffer (50 mM, pH 7.4)/MeOH (7:3, v/v)

Compound | Φem ([1]; CH3CN) | λem ([1]; CH3CN) | τo ([1]; CH3CN) | Φem [1, 8] | λem [1, 8] | τo [1, 8] | luminescence quantum yield ([1]; upon irradiation, very weak MLCT emission) | pseudo first-order rate constant (kobs) ([2]; complex 10 μM, H2O2 (1 mM), aerated potassium phosphate buffer (50 mM, pH 7.4)/DMSO (99:1, v/v)) | second-order rate constant ([2]; slope of kobs versus [H2O2], potassium phosphate buffer (50 mM, pH 7.4)/DMSO (99:1, v/v)) | emission enhancement (I/I0) ([3]; [H2O2]=250 μM, 1.5 h) | H2O2 concentration range of good linearity of emission intensity enhancement [3] | detection limit for H2O2 [3] | emission response toward H2O2 ([4]; H2O2 100 μM) | emission response toward TBHP, 1O2, OH., NO, O2−, ClO− ([4]; ROS 100 μM) | cytotoxic effect under imaging experiment conditions (HeLa cells [5]; 10 μM, 1 h) | IC50 (HeLa cells [5]; HeLa cells, 48 h, MTT) | emission intensity of the cells at lowered incubation temperature (HeLa cells [6]; HeLa cells, 10 μM, 1 h, 4° C.) | intracellular emission (HeLa cells [6]; HeLa cells, 10 μM, 1 h, 37° C.) | intracellular emission intensity after incubation with H2O2 (HeLa cells [6]; complex-stained HeLa cells, H2O2 1 mM, 2 h) | φem of standard solution [7]
[Re(Ph2-phen)(CO)3(py-3-C(═O)C(═O)C6H3(NH2)(NO2)](CF3SO3) [Metal complex of Formula (IV)] | 0.007 | 554 nm | 4.83 μs | 0.005 | 557 nm | 3.14 μs | < 0.007 | (0.6375±0.0092)×10^−3 s^−1 | 0.7301 ± 0.0134 M⁻¹ s⁻¹ | 20.6 | 0 to 50 µM | 1.84 µM | significant emission enhancement | did not induce any significant changes in the emission intensity | would not cause significant cytotoxic effect | 3.34 ± 0.05 µM | significantly reduced | weak intracellular emission in the perinuclear region | significantly enhanced | –
O=S(=O)([O-])C(F)(F)F.[C-]#[O+].[C-]#[O+].[C-]#[O+].[Re+].c1ccncc1.c1cnc2c(c1)ccc1cccnc12 [[Re(phen)(CO)3(pyridine)](CF3SO3)] | – | – | – | – | – | – | – | – | – | – | – | – | – | – | – | – | – | – | – | 0.18
